ChEMBL document CHEMBL6096636 (Bioorg Med Chem, 2024)

Key:
[1] = Cytotoxicity against HEK293T cells assessed as inhibition of cell growth incubated for 72 hrs by CCK8 assay; format: toxicity, cell-based, HEK-293T; conditions: human
[2] = target: T1, NAD-dependent protein deacetylase sirtuin-2 (Homo sapiens, UniProt Q8IXJ6); experiment: Inhibition of recombinant human SIRT2 using Ac-peptide as substrate preincubated for 15 mins followed by substrate addition for 240 mins and measured after 120 mins of trypsin addition
T1 sequence (Q8IXJ6 whole entry): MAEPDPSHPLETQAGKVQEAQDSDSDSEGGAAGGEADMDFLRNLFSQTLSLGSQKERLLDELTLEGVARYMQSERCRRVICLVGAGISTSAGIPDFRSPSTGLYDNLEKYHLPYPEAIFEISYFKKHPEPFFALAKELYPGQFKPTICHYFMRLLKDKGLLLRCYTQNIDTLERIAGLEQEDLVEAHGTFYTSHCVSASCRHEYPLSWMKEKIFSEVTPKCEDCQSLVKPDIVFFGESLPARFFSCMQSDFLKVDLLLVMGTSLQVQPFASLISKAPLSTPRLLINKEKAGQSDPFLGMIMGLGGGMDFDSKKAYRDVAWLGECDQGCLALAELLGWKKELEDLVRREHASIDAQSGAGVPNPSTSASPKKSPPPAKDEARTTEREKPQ

[3] = Toxicity in female mouse model infected with erythrocytic stage of Plasmodium yoelli assessed as animal death at 30 mg/kg, ip pre-infected with parasite followed by twice daily compound administration from day 3 to 6; format: organism-based; conditions: in vivo, 96 h, time 4 day
Histone deacetylase 2 = Histone deacetylase 2 (Homo sapiens, UniProt Q92769); experiment: Inhibition of recombinant human HDAC2 using Ac-peptide as substrate preincubated for 15 mins followed by substrate addition and measured after 60 mins
Sequence of Histone deacetylase 2 (Q92769 whole entry): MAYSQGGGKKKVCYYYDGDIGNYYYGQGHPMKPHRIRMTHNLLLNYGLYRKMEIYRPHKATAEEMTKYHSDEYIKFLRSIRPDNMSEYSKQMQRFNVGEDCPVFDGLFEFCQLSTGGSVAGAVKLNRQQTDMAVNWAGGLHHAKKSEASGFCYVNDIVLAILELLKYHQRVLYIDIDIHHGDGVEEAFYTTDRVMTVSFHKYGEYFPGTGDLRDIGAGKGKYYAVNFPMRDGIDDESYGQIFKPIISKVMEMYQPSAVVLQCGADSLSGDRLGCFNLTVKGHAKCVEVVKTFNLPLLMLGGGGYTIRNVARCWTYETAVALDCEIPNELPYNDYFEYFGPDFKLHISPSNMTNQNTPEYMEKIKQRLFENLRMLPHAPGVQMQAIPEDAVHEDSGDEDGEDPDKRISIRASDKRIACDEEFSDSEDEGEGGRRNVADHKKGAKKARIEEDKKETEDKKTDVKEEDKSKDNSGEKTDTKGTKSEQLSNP

[4] = Apparent clearance during terminal phase in female Balb/c mouse at 5 mg/kg, ip measured after 24 hrs by LC-MS/MS analysis; format: ADME, organism-based; conditions: in vivo, read-out: CLz/F (converted)
[5] = Half-life in female Balb/c mouse at 5 mg/kg, ip measured after 24 hrs by LC-MS/MS analysis; format: ADME, organism-based; conditions: in vivo
[6] = Cytotoxicity against human HepG2 cells assessed as inhibition of cell growth incubated for 72 hrs by CCK8 assay; format: toxicity, cell-based
Plasmodium falciparum = experiment: microbe, parasite or virus in culture; conditions: 72 h
Description: Antimalarial activity against chloroquine resistant Plasmodium falciparum clinical isolate GB4 assessed as inhibition of growth incubated for 72 hrs by SYBR green I based assay

Compound: Cc1ccc2c(CN[C@H]3CC[C@@H](Nc4ncc(C(=O)NO)cn4)CC3)cn(C)c2c1.Cl
- IC50 at 72 h [1]: 7.75 µM
- IC50 [2]: > 10 µM
- Activity [3]: Toxic
- IC50 (Histone deacetylase 2): 0.011 µM
- CL/F [4]: 97.7 mL/min/kg
- half-life [5]: 1.9 h
- IC50 at 72 h [6]: 5.29 µM
- IC50 (Plasmodium falciparum): 0.0295 µM
